# Measurements from US20260306631A1, “CHIMERIC RECEPTORS” (St. Jude Children's Research Hospital, Inc., priority 2023, published 2026).
# Assays:
# [1] = tested on: Jun.GHR (ZipGHR: cJunzip.hGHR, cJun SEQ ID NO: 9, hGHR SEQ ID NO: 20); assay: Frequency of pSTAT5+ cells after ruxolitinib treatment, T cells expressing Jun.GHR ZipR; assay type: cell-based; settings: role: inhibitor; STAT5 phosphorylation (pSTAT5+ cells), human T cells, 48-hour treatment
# Description: (§1) FIGS. 2A-2F show Jun leucine zipper-based homodimers activating STAT5 resulting in improved T cell viability, and that they are inhibited by ruxolitinib. (FIGS. 2A and 2B) pSTAT5 geometric mean fluorescence intensity (FIG. 2A) or percent positive (FIG. 2B) in Jun ZipR+ cells (N=4 biological replicates, One-way ANOVA, ** p<0.01, *** p<0.001, **** p<0.0001). (FIGS. 2C-2E) Frequency of pSTAT5+ cells following 48-hour treatment with indicated concentrations of ruxolitinib in vitro (N=3 biological replicates). (FIG. 2F) Frequency of dead cells (Annexin V+ Dead+), apoptotic cells (Annexin V+ Dead-), necrotic cells (Annexin V− Dead+), and live cells (Annexin V− Dead-) after 7 days of cytokine starvation without or with treatment of 5 M ruxolitinib in vitro (N=2 biological replicates, two-way ANOVA, **** p<0.0001 on Live cell population)
# (§2) As a potential safety switch for the constitutively active homodimeric ZipRs, T cells expressing Jun.EpoR ZipRs or the Jun. GHR ZipRs were treated with increasing concentrations of ruxolitinib, an FDA-approved JAK1/2 inhibitor. All ZipRs were inhibited by ruxolitinib (FIGS. 2C-2E) as judged by their ability to phosphorylate STAT5.
# (§3) Generation of ZipR transduced T cells. […]
# [2] = tested on: Jun.EpoR.del3 (ZipEpoR.del3: cJunzip.hEpoRmut.del3, cJun SEQ ID NO: 9, hEpoRmut SEQ ID NO: 16; 3 amino acid TM domain deletion); assay: Frequency of pSTAT5+ cells after ruxolitinib treatment, T cells expressing Jun.EpoR.del3 ZipR; assay type: cell-based; settings: role: inhibitor; STAT5 phosphorylation (pSTAT5+ cells), human T cells, 48-hour treatment
# Description: as §1
# (§4) The following constructs were generated and tested: • i) Jun.IL-2Rβ chain constructs with 0 to 6 alanine insertions to interrogate all potential intracellular orientations; • ii) Jun.EpoR constructs with 0, 1, 3, or 5 amino acid TM domain deletions to interrogate receptors with 0, 100, 300, or 500 degrees of rotation; • iii) Jun. GHR; and • iv) Jun. 18B.MyD88 fused to EpoR or GHR (Jun.MyD88.EpoR or Jun.MyD88.GHR).
# (§5) As a potential safety switch for the constitutively active homodimeric ZipRs, T cells expressing Jun.EpoR ZipRs or the Jun. […]
# [3] = tested on: Jun.EpoR- or Jun.GHR ZipRs expressing human T cells; assay: T cell survival after 7-day cytokine starvation with concurrent ruxolitinib treatment; assay type: cell-based; settings: role: inhibitor, 7 days without cytokines, printed as 5 M in FIG. 2F legend
# Description: as §1
# In addition to activation of STAT5, the ability for Jun ZipRs to improve T cell function was determined. Jun.EpoR- or Jun.GHR ZipRs expressing human T cells were cultured without cytokines for 7 days in vitro before quantifying the frequency of live, dead, and dying cells. ZipR signaling allowed cells to survive 7-day cytokine starvation, which was abrogated by concurrent treatment with ruxolitinib (FIG. 2F). […]
# Cytokine starvation. […] To quantify apoptosis, cells were labeled with annexin V (BD Biosciences) and eBioscience Fixable viability dye (Invitrogen).
# [4] = tested on: Jun.EpoR ZipRs or the Jun.GHR ZipRs; assay: Ability of ZipRs to phosphorylate STAT5 under ruxolitinib treatment, T cells expressing Jun.EpoR ZipRs or Jun.GHR ZipR; assay type: cell-based, human; settings: role: inhibitor; increasing concentrations of ruxolitinib
# Description: as §1, §2, §3
# [5] = tested on: Jun.EpoR (ZipEpoR: cJunzip.hEpoRmut, cJun SEQ ID NO: 9, hEpoRmut SEQ ID NO: 10); assay: Frequency of pSTAT5+ cells after ruxolitinib treatment, T cells expressing Jun.EpoR ZipR; assay type: cell-based; settings: role: inhibitor; STAT5 phosphorylation (pSTAT5+ cells), human T cells, 48-hour treatment
# Description: as §1, §2, §3
# [6] = tested on: Jun.EpoR.del1 (ZipEpoR.del1: cJunzip.hEpoRmut.del1, cJun SEQ ID NO: 9, hEpoRmut SEQ ID NO: 14; 1 amino acid TM domain deletion); assay: Frequency of pSTAT5+ cells after ruxolitinib treatment, T cells expressing Jun.EpoR.del1 ZipR; assay type: cell-based; settings: role: inhibitor; STAT5 phosphorylation (pSTAT5+ cells), human T cells, 48-hour treatment
# Description: as §1, §4, §5
# [7] = tested on: Jun.EpoR.del5 (ZipEpoR.del5: cJunzip.hEpoRmut.del5, cJun SEQ ID NO: 9, hEpoRmut SEQ ID NO: 18; 5 amino acid TM domain deletion); assay: Frequency of pSTAT5+ cells after ruxolitinib treatment, T cells expressing Jun.EpoR.del5 ZipR; assay type: cell-based; settings: role: inhibitor; STAT5 phosphorylation (pSTAT5+ cells), human T cells, 48-hour treatment
# Description: as §1, §4, §5
smiles,measurement,setting,value
"N#CC[C@H](C1CCCC1)n1cc(-c2ncnc3[nH]ccc23)cn1 [Ruxolitinib, ruxolitinib]",EC50,[1],6.3 nM
same,EC50,[2],57.2 nM
same,survival of 7-day cytokine starvation by ZipR signaling,[3],abrogated
same,inhibition of ZipRs as judged by their ability to phosphorylate STAT5,[4],inhibited
same,EC50,[5],668 nM
same,EC50,[6],483 nM
same,EC50,[7],94.2 nM
